How the values were obtained:
[1] = cited from earlier work
[2] = following oral administration; cited from earlier work
[3] = test system: acute post-operative pain (Brennan) model in Sprague Dawley rats; test: Acute post-operative pain (Brennan) model, paw withdrawal latency / mechanical hyperalgesia; assay type: in vivo; settings: 3 mg/kg IV
Procedure: Animal Study: Evaluation of Efficacy of Meloxicam Compositions in Acute Post-operative Pain (Brennan) Model in Sprague Dawley Rats.
The analgesic efficacy of Composition K was studied in comparison with Anjeso® and ketorolac tromethamine drug products in a rat acute post-operative pain model at a dose of 3 mg/kg administered by intravenous route.
Meloxicam compositions (Anjeso® & Composition K) & ketorolac drug products were tested in an acute post-operative (Brennan) pain model in rats after intravenous administration. Average paw withdrawal latency & mechanical hyperalgesia (pain assessment) parameters were assessed in rats after intravenous administration of vehicle (0.9% saline), ketorolac tromethamine (3 mg/kg), Anjeso® (3 mg/kg), Composition K (3 mg/kg). Evaluations began 30 minutes following surgery, and were continued for 240 minutes.
Mean paw withdrawal latency was between 8.6 to 8.9 across all the treatment groups. […] Average paw withdrawal latency in normal animals is 9.7 seconds whereas as it was 3.5 seconds in operated animals.

Compound | solubility in methanol ([1]; methanol) | solubility in water ([1]; water) | time of maximum observed plasma concentration (Tmax) [2] [h] | increased average paw withdrawal latency compared with vehicle (0.9% saline) [3] [%] | effect on development of mechanical allodynia ([3]; from 45 minutes till 240 minutes of recording, statistically significant at 45, 90 and 120 minutes)
Cc1cnc(NC(=O)C2=C(O)c3ccccc3S(=O)(=O)N2C)s1 [Meloxicam, 4-hydroxy-2-methyl-N-(5-methyl-2-thiazolyl)-2H-1,2-benzothiazine-3-carbox-amide-1,1-dioxide] | very slightly soluble | practically insoluble | 5 to 6 |  | 
O=C(c1ccccc1)c1ccc2n1CCC2C(=O)O (centres unmarked) [ketorolac tromethamine] |  |  |  | 68 | significantly prevented the development of mechanical allodynia

Reference: patent US12263176B2, “Pharmaceutical liquid compositions of meloxicam” (SLAYBACK PHARMA LLC, priority 2020, dated 2025)
